Results taken from the supplement of paper PMC10307832.

Legend:
Assay in all cases: relative viability (nuclei count vs DMSO), 5 days (fraction); higher = more cells survive
201T = test system: 201T
Outline: (§1)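 Dosing by pin tool came one day after lung cancer cell lines were seeded in 1536-well plates, using either one drug or a fixed anchor-drug dose plus five library-drug doses (not always all listed) in √10 steps. After 5 days, nuclei were counted on 4× images. Relative viability is treated-well nuclei count divided by vehicle-well nuclei count, and values are medians of duplicate plates.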

BEN = test system: BEN
Outline: as §1

CAL-12T = test system: CAL-12T
Outline: as §1

COR-L 105 = test system: COR-L 105
Outline: as §1

EKVX = test system: EKVX
Outline: as §1

HARA = test system: HARA
Outline: as §1

HCC-366 = test system: HCC-366
Outline: as §1

LK-2 = test system: LK-2
Outline: as §1

LOU-NH91 = test system: LOU-NH91
Outline: as §1

NCI-H1437 = test system: NCI-H1437
Outline: as §1

NCI-H1650 = test system: NCI-H1650
Outline: as §1

NCI-H1666 = test system: NCI-H1666
Outline: as §1

NCI-H2009 = test system: NCI-H2009
Outline: as §1

NCI-H2170 = test system: NCI-H2170
Outline: as §1

NCI-H3122 = test system: NCI-H3122
Outline: as §1

NCI-H441 = test system: NCI-H441
Outline: as §1

NCI-H460 = test system: NCI-H460
Outline: as §1

NCI-H661 = test system: NCI-H661
Outline: as §1

NCI-H727 = test system: NCI-H727
Outline: as §1

PC-14 = test system: PC-14
Outline: as §1

SW 900 = test system: SW 900
Outline: as §1

`Cc1sc2c(c1C)C(c1ccc(Cl)cc1)=N[C@@H](CC(=O)OC(C)(C)C)c1nnc(C)n1-2` [JQ1] + CC(=O)Nc1cccc(-n2c(=O)n(C3CC3)c(=O)c3c(Nc4ccc(I)cc4F)n(C)c(=O)c(C)c32)c1 [Trametinib] (partner 0.02 µM) showed a relative viability (201T; first compound 0.04 µM) of 0.72, a relative viability (201T; first compound 0.4 µM) of 0.538 and a relative viability (201T; first compound 1.265 µM) of 0.505. The relative viability (201T; first compound 4 µM) was 0.391, the relative viability (BEN; first compound 0.04 µM) was 1.05 and the relative viability (BEN; first compound 0.1265 µM) was 0.829. For the same molecule, the relative viability (BEN; first compound 0.4 µM) was 0.557, the relative viability (BEN; first compound 1.265 µM) was 0.481 and the relative viability (BEN; first compound 4 µM) was 0.41. For the same molecule, the relative viability (CAL-12T; first compound 0.04 µM) was 0.354, the relative viability (CAL-12T; first compound 0.1265 µM) was 0.29 and the relative viability (CAL-12T; first compound 0.4 µM) was 0.207. For the same molecule, the relative viability (CAL-12T; first compound 1.265 µM) was 0.193, the relative viability (CAL-12T; first compound 4 µM) was 0.208 and the relative viability (COR-L 105; first compound 0.04 µM) was 0.46. For the same molecule, the relative viability (COR-L 105; first compound 0.1265 µM) was 0.362, the relative viability (COR-L 105; first compound 0.4 µM) was 0.377 and the relative viability (COR-L 105; first compound 1.265 µM) was 0.355. For the same molecule, the relative viability (COR-L 105; first compound 4 µM) was 0.357, the relative viability (EKVX; first compound 0.04 µM) was 0.286 and the relative viability (EKVX; first compound 0.1265 µM) was 0.38. It also gave a relative viability (EKVX; first compound 0.4 µM) of 0.366, a relative viability (EKVX; first compound 1.265 µM) of 0.432 and a relative viability (EKVX; first compound 4 µM) of 0.271. The relative viability (HARA; first compound 0.04 µM) was 0.72, the relative viability (HARA; first compound 0.1265 µM) was 0.411 and the relative viability (HARA; first compound 0.4 µM) was 0.174. It also gave a relative viability (HARA; first compound 1.265 µM) of 0.184, a relative viability (HARA; first compound 4 µM) of 0.304 and a relative viability (HCC-366; first compound 0.04 µM) of 0.407. It also gave a relative viability (HCC-366; first compound 0.4 µM) of 0.372, a relative viability (HCC-366; first compound 1.265 µM) of 0.235 and a relative viability (HCC-366; first compound 4 µM) of 0.237. It also gave a relative viability (LK-2; first compound 0.04 µM) of 0.71, a relative viability (LK-2; first compound 0.1265 µM) of 0.579 and a relative viability (LK-2; first compound 0.4 µM) of 0.217. For the same molecule, the relative viability (LK-2; first compound 1.265 µM) was 0.163, the relative viability (LK-2; first compound 4 µM) was 0.218 and the relative viability (LOU-NH91; first compound 0.04 µM) was 0.774. For the same molecule, the relative viability (LOU-NH91; first compound 0.1265 µM) was 0.719, the relative viability (LOU-NH91; first compound 0.4 µM) was 0.603 and the relative viability (LOU-NH91; first compound 1.265 µM) was 0.479. It also gave a relative viability (LOU-NH91; first compound 4 µM) of 0.414, a relative viability (NCI-H1437; first compound 0.04 µM) of 0.443 and a relative viability (NCI-H1437; first compound 0.1265 µM) of 0.519. It also gave a relative viability (NCI-H1437; first compound 0.4 µM) of 0.344, a relative viability (NCI-H1437; first compound 1.265 µM) of 0.35 and a relative viability (NCI-H1437; first compound 4 µM) of 0.26. It also gave a relative viability (NCI-H1650; first compound 0.04 µM) of 0.477, a relative viability (NCI-H1650; first compound 0.1265 µM) of 0.425 and a relative viability (NCI-H1650; first compound 0.4 µM) of 0.43. For the same molecule, the relative viability (NCI-H1650; first compound 1.265 µM) was 0.18, the relative viability (NCI-H1650; first compound 4 µM) was 0.145 and the relative viability (NCI-H1666; first compound 0.04 µM) was 0.92. For the same molecule, the relative viability (NCI-H1666; first compound 0.1265 µM) was 0.874, the relative viability (NCI-H1666; first compound 0.4 µM) was 0.847 and the relative viability (NCI-H1666; first compound 1.265 µM) was 0.641. The relative viability (NCI-H1666; first compound 4 µM) was 0.757, the relative viability (NCI-H2009; first compound 0.04 µM) was 0.234 and the relative viability (NCI-H2009; first compound 0.1265 µM) was 0.197. For the same molecule, the relative viability (NCI-H2009; first compound 0.4 µM) was 0.173, the relative viability (NCI-H2009; first compound 1.265 µM) was 0.15 and the relative viability (NCI-H2009; first compound 4 µM) was 0.135. It also gave a relative viability (NCI-H2170; first compound 0.04 µM) of 0.861, a relative viability (NCI-H2170; first compound 0.1265 µM) of 0.843 and a relative viability (NCI-H2170; first compound 0.4 µM) of 0.637. It also gave a relative viability (NCI-H2170; first compound 1.265 µM) of 0.585, a relative viability (NCI-H2170; first compound 4 µM) of 0.519 and a relative viability (NCI-H3122; first compound 0.04 µM) of 0.219. For the same molecule, the relative viability (NCI-H3122; first compound 0.1265 µM) was 0.179, the relative viability (NCI-H3122; first compound 0.4 µM) was 0.322 and the relative viability (NCI-H3122; first compound 1.265 µM) was 0.317. The relative viability (NCI-H3122; first compound 4 µM) was 0.304, the relative viability (NCI-H441; first compound 0.04 µM) was 0.476 and the relative viability (NCI-H441; first compound 0.1265 µM) was 0.377. The relative viability (NCI-H441; first compound 0.4 µM) was 0.31, the relative viability (NCI-H441; first compound 1.265 µM) was 0.175 and the relative viability (NCI-H441; first compound 4 µM) was 0.169. The relative viability (NCI-H460; first compound 0.04 µM) was 0.129, the relative viability (NCI-H460; first compound 0.1265 µM) was 0.0734 and the relative viability (NCI-H460; first compound 0.4 µM) was 0.0575. The relative viability (NCI-H460; first compound 1.265 µM) was 0.0314, the relative viability (NCI-H460; first compound 4 µM) was 0.0297 and the relative viability (NCI-H661; first compound 0.04 µM) was 0.554. For the same molecule, the relative viability (NCI-H661; first compound 0.1265 µM) was 0.451, the relative viability (NCI-H661; first compound 0.4 µM) was 0.508 and the relative viability (NCI-H661; first compound 1.265 µM) was 0.46. For the same molecule, the relative viability (NCI-H661; first compound 4 µM) was 0.441, the relative viability (NCI-H727; first compound 0.04 µM) was 0.403 and the relative viability (NCI-H727; first compound 0.1265 µM) was 0.421. It also gave a relative viability (NCI-H727; first compound 0.4 µM) of 0.381, a relative viability (NCI-H727; first compound 1.265 µM) of 0.365 and a relative viability (NCI-H727; first compound 4 µM) of 0.401. The relative viability (PC-14; first compound 0.04 µM) was 0.862, the relative viability (PC-14; first compound 0.1265 µM) was 0.174 and the relative viability (PC-14; first compound 0.4 µM) was 0.515. The relative viability (PC-14; first compound 1.265 µM) was 0.26, the relative viability (PC-14; first compound 4 µM) was 0.182 and the relative viability (SW 900; first compound 0.04 µM) was 0.804. It also gave a relative viability (SW 900; first compound 0.1265 µM) of 0.582, a relative viability (SW 900; first compound 0.4 µM) of 0.532 and a relative viability (SW 900; first compound 1.265 µM) of 0.205. For the same molecule, the relative viability (SW 900; first compound 4 µM) was 0.204.
